Measurements published in PMC7026418, “The kinase polypharmacology landscape of clinical PARP inhibitors” (Scientific Reports, 2020).
Like-named read-outs stand apart in the source and are kept apart here.

Columns and labels:
Test in all cases: biochemical
Set-up in all cases: DiscoveRx KINOMEscan active site-directed competition binding; percent of control kinase bound to immobilised ligand
EPHB4 = molecular target: T1, EPHB4 (Homo sapiens, UniProt P54760)
T1 sequence (P54760 1-987): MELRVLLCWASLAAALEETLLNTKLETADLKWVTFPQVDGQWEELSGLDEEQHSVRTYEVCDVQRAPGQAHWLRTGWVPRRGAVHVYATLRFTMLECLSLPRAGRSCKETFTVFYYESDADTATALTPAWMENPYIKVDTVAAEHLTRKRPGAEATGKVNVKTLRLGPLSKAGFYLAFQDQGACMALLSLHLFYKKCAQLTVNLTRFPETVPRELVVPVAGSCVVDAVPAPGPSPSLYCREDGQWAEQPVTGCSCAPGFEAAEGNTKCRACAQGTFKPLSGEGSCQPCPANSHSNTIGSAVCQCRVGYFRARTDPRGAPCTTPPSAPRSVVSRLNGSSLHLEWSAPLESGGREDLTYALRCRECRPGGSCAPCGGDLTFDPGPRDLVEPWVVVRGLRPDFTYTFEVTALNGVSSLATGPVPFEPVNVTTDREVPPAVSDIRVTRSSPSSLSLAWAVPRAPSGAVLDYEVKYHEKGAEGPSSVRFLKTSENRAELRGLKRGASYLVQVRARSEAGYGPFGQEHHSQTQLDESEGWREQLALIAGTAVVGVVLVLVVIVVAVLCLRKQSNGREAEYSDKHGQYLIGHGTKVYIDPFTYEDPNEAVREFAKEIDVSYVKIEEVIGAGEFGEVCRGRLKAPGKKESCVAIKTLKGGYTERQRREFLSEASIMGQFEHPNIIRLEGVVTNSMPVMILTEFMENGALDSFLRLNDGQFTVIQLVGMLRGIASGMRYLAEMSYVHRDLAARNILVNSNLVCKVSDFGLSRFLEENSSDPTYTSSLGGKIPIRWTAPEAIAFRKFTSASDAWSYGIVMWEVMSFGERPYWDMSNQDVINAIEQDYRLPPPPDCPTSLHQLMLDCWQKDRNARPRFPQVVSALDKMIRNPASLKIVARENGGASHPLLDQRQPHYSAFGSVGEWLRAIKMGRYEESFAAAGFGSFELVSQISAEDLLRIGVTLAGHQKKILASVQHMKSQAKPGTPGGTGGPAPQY

TGFBR2 = TGFBR2 (Homo sapiens, UniProt P37173)
TGFBR2, sequence (P37173 whole entry): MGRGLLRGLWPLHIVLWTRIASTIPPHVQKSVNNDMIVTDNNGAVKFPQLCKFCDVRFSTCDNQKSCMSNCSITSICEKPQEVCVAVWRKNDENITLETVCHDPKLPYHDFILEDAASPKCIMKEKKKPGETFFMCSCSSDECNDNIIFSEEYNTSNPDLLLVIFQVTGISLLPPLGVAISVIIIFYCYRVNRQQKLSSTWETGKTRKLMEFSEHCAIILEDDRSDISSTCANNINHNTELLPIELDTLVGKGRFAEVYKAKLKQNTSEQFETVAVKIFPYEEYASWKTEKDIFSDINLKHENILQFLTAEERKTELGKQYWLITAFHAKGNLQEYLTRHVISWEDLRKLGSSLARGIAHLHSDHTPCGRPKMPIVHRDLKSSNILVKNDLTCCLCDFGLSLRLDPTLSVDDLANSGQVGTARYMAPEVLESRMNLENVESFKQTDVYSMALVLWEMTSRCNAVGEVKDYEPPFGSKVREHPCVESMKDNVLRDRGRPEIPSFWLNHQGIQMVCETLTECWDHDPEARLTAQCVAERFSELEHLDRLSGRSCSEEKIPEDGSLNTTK

PLK3 = PLK3 (Homo sapiens, UniProt Q9H4B4)
BMPR1B = BMPR1B (Homo sapiens, UniProt O00238)
BMPR1B, sequence (O00238 whole entry): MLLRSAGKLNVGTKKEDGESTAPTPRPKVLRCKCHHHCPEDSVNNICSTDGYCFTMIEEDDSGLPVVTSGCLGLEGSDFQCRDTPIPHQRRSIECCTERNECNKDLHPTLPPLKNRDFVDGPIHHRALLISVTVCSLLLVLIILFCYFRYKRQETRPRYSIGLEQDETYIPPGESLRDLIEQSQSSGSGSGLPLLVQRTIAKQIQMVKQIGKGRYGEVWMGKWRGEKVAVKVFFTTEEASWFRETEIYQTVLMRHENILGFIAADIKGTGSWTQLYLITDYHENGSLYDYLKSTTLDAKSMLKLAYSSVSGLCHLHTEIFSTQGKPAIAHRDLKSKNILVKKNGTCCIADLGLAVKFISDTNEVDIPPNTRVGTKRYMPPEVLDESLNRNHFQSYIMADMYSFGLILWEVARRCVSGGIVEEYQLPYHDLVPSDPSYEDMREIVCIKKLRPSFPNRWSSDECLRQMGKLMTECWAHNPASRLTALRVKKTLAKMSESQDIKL

PKN1 = PKN1 (Homo sapiens, UniProt Q16512)
PKN1, sequence (Q16512 whole entry): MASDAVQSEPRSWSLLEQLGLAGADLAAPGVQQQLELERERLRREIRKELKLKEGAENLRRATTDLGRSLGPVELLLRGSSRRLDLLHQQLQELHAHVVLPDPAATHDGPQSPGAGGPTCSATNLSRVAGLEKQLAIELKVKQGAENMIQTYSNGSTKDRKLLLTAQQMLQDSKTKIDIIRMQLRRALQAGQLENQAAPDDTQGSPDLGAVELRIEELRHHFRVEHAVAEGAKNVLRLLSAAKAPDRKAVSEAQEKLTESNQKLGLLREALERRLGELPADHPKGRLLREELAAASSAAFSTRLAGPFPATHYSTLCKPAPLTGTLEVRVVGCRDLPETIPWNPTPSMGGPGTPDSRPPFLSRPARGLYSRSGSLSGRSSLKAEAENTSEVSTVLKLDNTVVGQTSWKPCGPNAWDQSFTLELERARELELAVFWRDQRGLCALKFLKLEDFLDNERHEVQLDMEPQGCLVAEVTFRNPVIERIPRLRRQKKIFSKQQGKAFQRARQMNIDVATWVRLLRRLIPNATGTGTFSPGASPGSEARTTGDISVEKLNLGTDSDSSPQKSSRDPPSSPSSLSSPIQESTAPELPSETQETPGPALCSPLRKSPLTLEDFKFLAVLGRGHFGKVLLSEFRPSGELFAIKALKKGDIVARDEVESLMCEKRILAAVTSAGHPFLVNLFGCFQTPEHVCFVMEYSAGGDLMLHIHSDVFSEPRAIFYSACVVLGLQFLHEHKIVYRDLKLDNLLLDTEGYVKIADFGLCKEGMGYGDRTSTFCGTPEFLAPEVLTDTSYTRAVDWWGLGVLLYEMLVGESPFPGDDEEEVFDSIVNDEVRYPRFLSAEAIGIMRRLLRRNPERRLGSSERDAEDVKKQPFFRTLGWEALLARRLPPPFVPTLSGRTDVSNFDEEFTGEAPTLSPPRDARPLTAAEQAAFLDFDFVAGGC

TTK = molecular target: T2, TTK (Homo sapiens, UniProt P33981)
T2 sequence (P33981 1-857): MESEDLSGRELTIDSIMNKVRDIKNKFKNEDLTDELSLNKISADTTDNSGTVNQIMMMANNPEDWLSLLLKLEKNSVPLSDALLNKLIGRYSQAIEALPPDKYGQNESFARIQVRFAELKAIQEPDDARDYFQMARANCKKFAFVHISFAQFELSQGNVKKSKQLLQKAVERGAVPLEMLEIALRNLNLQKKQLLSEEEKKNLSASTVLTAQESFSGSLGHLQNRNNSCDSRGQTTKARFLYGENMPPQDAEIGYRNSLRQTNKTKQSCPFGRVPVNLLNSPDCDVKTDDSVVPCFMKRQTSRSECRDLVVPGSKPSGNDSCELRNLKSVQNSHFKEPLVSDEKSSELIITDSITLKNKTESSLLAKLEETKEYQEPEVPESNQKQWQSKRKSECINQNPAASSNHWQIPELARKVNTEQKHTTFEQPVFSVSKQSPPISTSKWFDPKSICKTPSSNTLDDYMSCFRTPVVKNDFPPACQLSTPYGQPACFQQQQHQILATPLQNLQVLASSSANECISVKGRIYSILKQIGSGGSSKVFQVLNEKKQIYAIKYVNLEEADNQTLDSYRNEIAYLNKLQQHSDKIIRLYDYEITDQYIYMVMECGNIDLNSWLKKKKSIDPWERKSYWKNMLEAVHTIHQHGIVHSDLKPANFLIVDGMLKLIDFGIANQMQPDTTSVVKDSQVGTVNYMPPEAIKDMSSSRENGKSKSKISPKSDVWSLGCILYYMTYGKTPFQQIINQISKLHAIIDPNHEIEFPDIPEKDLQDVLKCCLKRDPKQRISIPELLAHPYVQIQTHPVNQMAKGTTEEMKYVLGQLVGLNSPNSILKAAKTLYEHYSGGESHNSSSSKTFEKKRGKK

PHKG1 = PHKG1 (Homo sapiens, UniProt Q16816)
PHKG1, sequence (Q16816 whole entry): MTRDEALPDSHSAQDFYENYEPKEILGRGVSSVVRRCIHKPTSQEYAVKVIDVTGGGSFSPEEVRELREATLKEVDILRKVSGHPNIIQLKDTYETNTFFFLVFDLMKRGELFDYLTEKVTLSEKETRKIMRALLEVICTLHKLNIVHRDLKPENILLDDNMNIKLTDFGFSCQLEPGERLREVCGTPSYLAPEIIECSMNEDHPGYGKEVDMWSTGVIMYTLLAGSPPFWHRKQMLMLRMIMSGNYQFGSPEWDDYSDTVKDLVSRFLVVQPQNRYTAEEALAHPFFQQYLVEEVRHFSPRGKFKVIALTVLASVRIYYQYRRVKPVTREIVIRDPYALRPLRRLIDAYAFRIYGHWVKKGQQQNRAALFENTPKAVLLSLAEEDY

LRRK2(G2019S) = LRRK2(G2019S) (Homo sapiens, UniProt Q5S007, G2019S)
LRRK2(G2019S), sequence (Q5S007 whole entry G2019S): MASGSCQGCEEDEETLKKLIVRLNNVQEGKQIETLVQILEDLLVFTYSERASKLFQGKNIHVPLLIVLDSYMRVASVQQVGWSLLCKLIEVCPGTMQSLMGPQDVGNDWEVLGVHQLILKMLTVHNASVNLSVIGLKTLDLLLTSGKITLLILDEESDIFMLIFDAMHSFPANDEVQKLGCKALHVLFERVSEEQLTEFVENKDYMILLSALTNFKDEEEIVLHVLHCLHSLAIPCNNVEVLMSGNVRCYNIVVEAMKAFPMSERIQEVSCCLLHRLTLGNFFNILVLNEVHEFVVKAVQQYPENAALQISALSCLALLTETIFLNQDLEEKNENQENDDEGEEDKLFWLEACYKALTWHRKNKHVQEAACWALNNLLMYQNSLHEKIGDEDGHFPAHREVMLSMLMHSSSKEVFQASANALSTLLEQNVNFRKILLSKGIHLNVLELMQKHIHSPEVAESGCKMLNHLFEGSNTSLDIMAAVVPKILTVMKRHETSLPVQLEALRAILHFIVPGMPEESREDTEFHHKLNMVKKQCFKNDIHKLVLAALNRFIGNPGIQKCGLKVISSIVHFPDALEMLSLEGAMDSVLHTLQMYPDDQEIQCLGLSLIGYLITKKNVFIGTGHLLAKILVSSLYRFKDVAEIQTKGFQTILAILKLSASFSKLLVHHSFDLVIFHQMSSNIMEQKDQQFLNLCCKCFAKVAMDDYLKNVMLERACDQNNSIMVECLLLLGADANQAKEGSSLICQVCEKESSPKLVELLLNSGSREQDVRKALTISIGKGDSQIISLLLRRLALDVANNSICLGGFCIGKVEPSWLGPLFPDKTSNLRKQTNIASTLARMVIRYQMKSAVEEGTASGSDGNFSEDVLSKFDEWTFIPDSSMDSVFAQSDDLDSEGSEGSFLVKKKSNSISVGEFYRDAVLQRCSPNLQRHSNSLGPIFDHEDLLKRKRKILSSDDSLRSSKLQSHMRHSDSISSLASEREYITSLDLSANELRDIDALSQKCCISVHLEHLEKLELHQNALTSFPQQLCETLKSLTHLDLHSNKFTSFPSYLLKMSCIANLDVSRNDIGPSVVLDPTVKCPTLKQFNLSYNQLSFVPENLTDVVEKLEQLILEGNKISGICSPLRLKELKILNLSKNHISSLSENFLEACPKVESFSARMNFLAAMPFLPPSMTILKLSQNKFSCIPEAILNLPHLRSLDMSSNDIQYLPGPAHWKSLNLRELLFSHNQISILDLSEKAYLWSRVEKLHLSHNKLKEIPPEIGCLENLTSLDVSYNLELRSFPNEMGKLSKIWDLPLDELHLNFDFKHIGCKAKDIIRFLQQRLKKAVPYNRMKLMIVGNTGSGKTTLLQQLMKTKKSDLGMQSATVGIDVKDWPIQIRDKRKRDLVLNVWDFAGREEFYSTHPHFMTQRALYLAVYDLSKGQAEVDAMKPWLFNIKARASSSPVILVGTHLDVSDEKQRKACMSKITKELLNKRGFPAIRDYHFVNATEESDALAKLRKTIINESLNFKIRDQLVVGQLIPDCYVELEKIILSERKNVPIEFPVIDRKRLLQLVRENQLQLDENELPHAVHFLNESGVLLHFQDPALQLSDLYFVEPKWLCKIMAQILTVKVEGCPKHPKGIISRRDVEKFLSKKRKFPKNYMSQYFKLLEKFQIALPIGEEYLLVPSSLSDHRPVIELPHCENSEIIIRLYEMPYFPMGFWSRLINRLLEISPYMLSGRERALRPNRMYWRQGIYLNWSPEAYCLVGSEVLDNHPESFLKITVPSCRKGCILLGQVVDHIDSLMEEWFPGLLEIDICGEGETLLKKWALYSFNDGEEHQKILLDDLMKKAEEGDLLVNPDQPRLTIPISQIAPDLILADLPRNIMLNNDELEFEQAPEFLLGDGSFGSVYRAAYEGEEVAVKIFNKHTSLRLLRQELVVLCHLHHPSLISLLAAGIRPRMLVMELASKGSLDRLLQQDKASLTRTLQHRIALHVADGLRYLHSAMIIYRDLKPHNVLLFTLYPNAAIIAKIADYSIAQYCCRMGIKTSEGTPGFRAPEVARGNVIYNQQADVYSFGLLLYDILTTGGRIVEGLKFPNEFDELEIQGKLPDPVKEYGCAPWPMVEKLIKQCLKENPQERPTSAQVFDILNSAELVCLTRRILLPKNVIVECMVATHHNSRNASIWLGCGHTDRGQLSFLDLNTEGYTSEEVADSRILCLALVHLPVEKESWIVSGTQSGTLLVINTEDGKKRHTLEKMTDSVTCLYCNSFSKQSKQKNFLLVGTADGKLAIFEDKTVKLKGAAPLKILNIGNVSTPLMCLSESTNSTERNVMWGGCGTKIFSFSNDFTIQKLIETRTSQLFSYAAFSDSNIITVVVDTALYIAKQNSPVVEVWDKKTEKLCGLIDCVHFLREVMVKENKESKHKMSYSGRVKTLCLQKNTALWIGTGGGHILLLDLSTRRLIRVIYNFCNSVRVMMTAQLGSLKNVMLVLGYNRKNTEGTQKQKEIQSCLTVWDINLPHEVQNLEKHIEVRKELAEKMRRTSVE

ZAK = molecular target: T3, ZAK (Homo sapiens, UniProt Q9NYL2)
T3 construct: gene MAP3K20

[1] = read-out: Talazoparib (BMN 673) / %Ctrl @ 10000nM
[2] = read-out: Olaparib / %Ctrl @ 10000nM
[3] = read-out: Niraparib (MK-4827) / %Ctrl @ 10000nM
[4] = read-out: Rucaparib / %Ctrl @ 10000nM, binding competition, % of control

`Cn1ncnc1[C@H]1c2n[nH]c(=O)c3cc(F)cc(c23)N[C@@H]1c1ccc(F)cc1` [Talazoparib] gave a percent of control binding at 10 µM (EPHB4; [1]) of 100%, a percent of control binding at 10 µM (TGFBR2; [1]) of 98% and a percent of control binding at 10 µM (PLK3; [1]) of 90%. The percent of control binding at 10 µM (BMPR1B; [1]) was 100%, the percent of control binding at 10 µM (PKN1; [1]) was 74% and the percent of control binding at 10 µM (TTK; [1]) was 99%. It also gave a percent of control binding at 10 µM (PHKG1; [1]) of 90%, a percent of control binding at 10 µM (LRRK2(G2019S); [1]) of 100% and a percent of control binding at 10 µM (ZAK; [1]) of 97%.

With `O=C(c1cc(Cc2n[nH]c(=O)c3ccccc23)ccc1F)N1CCN(C(=O)C2CC2)CC1` [Olaparib] the percent of control binding at 10 µM (EPHB4; [2]) was 90%, the percent of control binding at 10 µM (TGFBR2; [2]) was 89% and the percent of control binding at 10 µM (PLK3; [2]) was 98%. For the same compound, the percent of control binding at 10 µM (BMPR1B; [2]) was 81%, the percent of control binding at 10 µM (PKN1; [2]) was 83% and the percent of control binding at 10 µM (TTK; [2]) was 90%. For the same compound, the percent of control binding at 10 µM (PHKG1; [2]) was 100%, the percent of control binding at 10 µM (LRRK2(G2019S); [2]) was 84% and the percent of control binding at 10 µM (ZAK; [2]) was 94%.

For `NC(=O)c1cccc2cn(-c3ccc([C@@H]4CCCNC4)cc3)nc12` [Niraparib], the percent of control binding at 10 µM (EPHB4; [3]) was 91%, the percent of control binding at 10 µM (TGFBR2; [3]) was 92% and the percent of control binding at 10 µM (PLK3; [3]) was 85%. For the same compound, the percent of control binding at 10 µM (BMPR1B; [3]) was 87%, the percent of control binding at 10 µM (PKN1; [3]) was 69% and the percent of control binding at 10 µM (TTK; [3]) was 54%. The percent of control binding at 10 µM (PHKG1; [3]) was 100%, the percent of control binding at 10 µM (LRRK2(G2019S); [3]) was 89% and the percent of control binding at 10 µM (ZAK; [3]) was 88%.

Work on `CNCc1ccc(-c2[nH]c3cc(F)cc4c3c2CCNC4=O)cc1` [Rucaparib] yielded a percent of control binding at 10 µM (EPHB4; [4]) of 95%, a percent of control binding at 10 µM (TGFBR2; [4]) of 96% and a percent of control binding at 10 µM (PLK3; [4]) of 60%. It also gave a percent of control binding at 10 µM (BMPR1B; [4]) of 80%, a percent of control binding at 10 µM (PKN1; [4]) of 78% and a percent of control binding at 10 µM (TTK; [4]) of 20%. The percent of control binding at 10 µM (PHKG1; [4]) was 87%, the percent of control binding at 10 µM (LRRK2(G2019S); [4]) was 87% and the percent of control binding at 10 µM (ZAK; [4]) was 93%.
